Experimental data: patent US11370779B2, “Pharmaceutical composition for preventing or treating acute myeloid leukemia or metastatic breast cancer” (PELEMED CO., LTD., priority 2017, dated 2022)
Where a name gives a salt, the structure may show the parent alone. Read-outs that look alike come from different tables or passages of the source. Blank lines part the entries; values can stand above or below the molecule they belong to.

Columns and labels:
FLT3 kinase = FLT3 kinase (Homo sapiens (Human), UniProt P36888); assay: In vitro FLT3 kinase HTRF assay (Example 2); format: biochemical; details: HTRF
Procedure: Inhibition of the FLT3 kinase activity was measured using homogeneous, time-resolved fluorescence (HTRF) assays. Recombinant proteins containing the FLT3 kinase domain were purchased from Carna biosciences (Japan). Optimal enzyme, ATP, and substrate concentrations were established using the HTRF KinEASE kit (Cisbio, France) according to the manufacturer's instructions. The FLT3 enzymes were mixed in sequence with diluted compounds and peptide substrates in a kinase reaction buffer (50 mM HEPES (pH 7.0), 500 μM ATP, 0.1 mM sodium orthovanadate, 5 mM MgCl2, 1 mM DTT, 0.01% bovine serum albumin (BSA), and 0.02% NaN3). After the addition of the reagents for detection, the TR-FRET signal was measured using a Victor multilabel reader (Perkin Elmer, Waltham, Mass., USA). […] JAK2, JAK3, cMET, and RET in vitro kinase assays were also performed using the HTRF assay.

MV4;11 cells = assay: Cell viability, EZ-Cytox tetrazolium assay, MV4;11; format: cell-based, human; details: 72 hours; for GI50: read-out: GI50(nM) MV4;11
Procedure: The cultured cells were incubated at 3° C. with 5% CO2.
(§1) Cell viability was assessed by a tetrazolium-based assay using the EZ-Cytox Cell Viability Assay kit (DaeilLab, Korea). Briefly, 2,000 to 15,000 cells were plated in 96-well plates in 100 μl of medium. The next day, the cells were treated with compounds together with dimethyl sulfoxide (DMSO) as a negative control. Three days (72 hours) after the drug addition, 15 μl of the EZ-Cytox kit reagent was added to each well of the 96-well plate and then incubated at 37° C. in a humidified CO2 incubator for 4 hours. After incubation, the optical density (OD) was measured at a wavelength of 450 nm using a Victor multilabel reader (Perkin Elmer, Waltham, Mass., USA).

MDA-MB-231 = assay: Cell viability, EZ-Cytox tetrazolium assay, MDA-MB-231; format: cell-based, human; details: 72 hours
Procedure: MDA-MB-231 (metastatic breast cancer, ATCC HTB-26), Jurkat (human acute T lymphocytic leukemia, ATCC TIB-152), and K-562 (human chronic myelogenous leukemia, ATCC CCL-243) cells were cultured in RPMI-1640 (Sigma Co.). MCF7 (human breast adenocarcinoma, ATCC HTB-22) and PC-3 (human prostate adenocarcinoma, ATCC CRL-1435) cells were cultured in DMEM (Sigma Co.) medium supplemented with 10% fetal bovine serum and 1% penicillin/streptomycin. The cultured cells were incubated at 3° C. with 5% CO2.
as §1, with “USA). The IC50 was calculated by nonlinear regression using Prism version 5.01 (GraphPad, La Jolla, Calif., USA).” for “USA).”

MDA-MB-231 xenograft = assay: MDA-MB-231 mouse tumor xenograft; format: in vivo; details: 20 mg/kg/p.o/day, 4 weeks
Procedure: 6-weeks-old Balb/c nu/nu mice (female) were purchased from Central Lab. Animal Inc. to be used. […] The candidate substances LDD-2614 (Compound 21), 2633 (Compound 28), 2634 (Compound 34), 2635 (Compound 33) were administered at 20 mg/kg/p.o/day, and doxorubicin, which was a control, was administered at 5 mg/kg/i.p (once a week) for 4 weeks.

MV4-11 xenograft = assay: MV4-11 mouse tumor xenograft, oral administration
MOLM14 FLT3-ITD-D835Y = assay: Cell proliferation MTT assay, MOLM14-ITD-D835Y; format: cell-based, human; details: for GI50: Homo sapiens, MOLM-14
MOLM14 Wild type = assay: Cell proliferation MTT assay, MOLM14 wild type; format: cell-based; details: Homo sapiens, MOLM-14
[1] = Table 1, recombinant FLT3 kinase domain, 500 μM ATP

Chain of FLT3 kinase (P36888 610-943): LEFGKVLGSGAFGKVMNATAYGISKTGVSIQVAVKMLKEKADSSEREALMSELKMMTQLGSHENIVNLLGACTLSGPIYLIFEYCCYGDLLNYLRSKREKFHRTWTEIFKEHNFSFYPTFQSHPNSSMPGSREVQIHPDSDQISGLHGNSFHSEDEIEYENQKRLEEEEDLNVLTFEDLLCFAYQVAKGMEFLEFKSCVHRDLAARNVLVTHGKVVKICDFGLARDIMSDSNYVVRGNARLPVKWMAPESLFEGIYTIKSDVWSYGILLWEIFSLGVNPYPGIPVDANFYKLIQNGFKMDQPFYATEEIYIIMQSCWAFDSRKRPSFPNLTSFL

IC50 (FLT3 kinase; [1]): 8 nM
Molecule: O=C1Nc2ccc(C(=O)O)cc2/C1=C1/Nc2ccccc2/C1=N\O [Compound 7, (2Z,3E)-3-(hydroxyimino)-2′-oxo-[2,3′-biindolinylidene]-5′-carboxylic acid]
IC50 (MV4;11 cells; Homo sapiens, MV4-11, Table 1): 4020 nM
Ic50 (nM) MV4;11 (MV4;11 cells; Table 1): lacking anti-proliferative activity

IC50 (FLT3 kinase; [1]): 13 nM
Molecule: O=C1Nc2ccc(C(=O)O)cc2/C1=C1/Nc2ccccc2/C1=N\OCCBr [Compound 8, (2Z,3E)-3-((2-bromoethoxy)imino)-2′-oxo-[2,3′-biindolinylidene]-5′-carboxylic acid]
IC50 (MV4;11 cells; Homo sapiens, MV4-11, Table 1): 340 nM

IC50 (FLT3 kinase; [1]): 3 nM
Molecule: NCCO/N=C1/C(=C2/C(=O)Nc3ccc(C(=O)O)cc32)Nc2ccccc21 [Compound 9, (2Z,3E)-3-((2-aminoethoxy)imino)-2′-oxo-[2,3′-biindolinylidene]-5′-carboxylic acid hydrochloride]
IC50 (MV4;11 cells; Homo sapiens, MV4-11, Table 1): 150 nM

IC50 (FLT3 kinase; Table 2): 23.4 nM
Molecule: O=C1Nc2ccc([N+](=O)[O-])cc2/C1=C1/Nc2ccc(O)cc2/C1=N\O [Compound 13, (2Z,3E)-5-hydroxy-3-(hydroxyimino)-5′-nitro-[2,3′-biindolinylidene]-2′-one]
GI50 (MV4;11 cells; Homo sapiens, MV4-11): 170 nM
GI50 (MDA-MB-231; Homo sapiens, MDA-MB-231): 568 nM

weights of the liver and the kidney (MDA-MB-231 xenograft): no significant difference
Molecule: Cl.Cl.O=C1Nc2ccc(F)cc2/C1=C1/Nc2ccc(F)cc2/C1=N\OCCN1CCNCC1 [Compound 21, (2Z,3E)-5,5′-difluoro-3-((2-(piperazin-1-yl)ethoxy)imino)-[2,3′-biindolinylidene]-2′-one dihydrochloride]
GI50 (MV4;11 cells; Homo sapiens, MV4-11): 8.9 nM
GI50 (MDA-MB-231; Homo sapiens, MDA-MB-231): 121 nM

IC50 (FLT3 kinase; Table 2): 939 nM
Molecule: O=C1Nc2ccc(F)cc2/C1=C1/Nc2ccc(F)cc2/C1=N\OCCN1CCOCC1 [Compound 27, (2Z,3E)-5,5′-difluoro-3-((2-morpholinoethoxy)imino)-[2,3′-biindolinylidene]-2′-one hydrochloride]
GI50 (MV4;11 cells; Homo sapiens, MV4-11): 116 nM
GI50 (MDA-MB-231; Homo sapiens, MDA-MB-231): > 10 nM

Molecule: Cl.Cl.O=C1Nc2ccccc2/C1=C1/Nc2ccccc2/C1=N\OCCN1CCNCC1 [Compound 28, (2Z,3E)-3-((2-(piperazin-1-yl)ethoxy)imino)-[2,3′-biindolinylidene]-2′-one dihydrochloride]
weight loss or other signs of toxicity during the administration period (MV4-11 xenograft; 20 mg/kg oral once daily for 21 days): no weight loss or any other signs of toxicity
day by which the tumor disappeared (MV4-11 xenograft; 20 mg/kg oral once daily, based on measured tumor volume): ≤ 14 days
GI50 (MV4;11 cells; Homo sapiens, MV4-11): 0.51 nM
weights of the liver and the kidney (MDA-MB-231 xenograft): no significant difference
GI50 (MDA-MB-231; Homo sapiens, MDA-MB-231): 276 nM

weights of the liver and the kidney (MDA-MB-231 xenograft): no significant difference
Molecule: CN1CCN(CCO/N=C2/C(=C3/C(=O)Nc4ccc(F)cc43)Nc3ccccc32)CC1.Cl.Cl [Compound 34, (2Z,3E)-5′-fluoro-3-((2-(4-methylpiperazin-1-yl)ethoxy)imino)-[2,3′-biindolinylidene]-2′-one dihydrochloride]
GI50 (MV4;11 cells; Homo sapiens, MV4-11): 11.1 nM
GI50 (MDA-MB-231; Homo sapiens, MDA-MB-231): 127 nM

Molecule: CN1CCN(CCO/N=C2/C(=C3/C(=O)Nc4ccc(Br)cc43)Nc3ccccc32)CC1 [Compound 41, (2Z,3E)-5′-bromo-3-((2-(4-methylpiperazin-1-yl)ethoximino)-[2,3′-biindolinylidene]-2′-one dihydrochloride]
IC50 (FLT3 kinase; Table 2): 4.8 nM
GI50 (MV4;11 cells): 25 nM

GI50 (MOLM14 FLT3-ITD-D835Y): 15 nM
GI50 (MOLM14 Wild type): 4.7 nM
Molecule: CC1(COc2ccc3c(c2)ncn3-c2ccc3cccc(N4CCC(N)CC4)c3n2)COC1 [Crenolanib]

GI50 (MOLM14 FLT3-ITD-D835Y): 43 nM
GI50 (MOLM14 Wild type): 8.5 nM
Molecule: CCc1nc(C(N)=O)c(Nc2ccc(N3CCC(N4CCN(C)CC4)CC3)c(OC)c2)nc1NC1CCOCC1 [Gilteritinib]

GI50 (MOLM14 FLT3-ITD-D835Y): 79 nM
GI50 (MOLM14 Wild type): 80 nM
Molecule: CO[C@@H]1[C@H](N(C)C(=O)c2ccccc2)C[C@H]2O[C@]1(C)n1c3ccccc3c3c4c(c5c6ccccc6n2c5c31)C(=O)NC4 [Midostaurin]

GI50 (nM) MOLM14-ITD D835Y (MOLM14 FLT3-ITD-D835Y): No Activity
GI50 (MOLM14 Wild type): 28 nM
Molecule: CNC(=O)c1cc(Oc2ccc(NC(=O)Nc3ccc(Cl)c(C(F)(F)F)c3)cc2)ccn1 [Sorafenib]

Molecule: (2Z,3E)-2′-oxo-3-((2-(piperazin-1-yl)ethoximino)-[2,3′-biindolinylidene]-5′-carboxylic acid dihydrochloride [Compound 10]
IC50 (FLT3 kinase; [1]): 3 nM
IC50 (MV4;11 cells; Table 1): 40 nM

Molecule: (2Z,3E)-3-((2-(4-methylpiperazin-1-yl)ethoxy)imino)-5′-(trifluoromethox[2,3′-biindolinylidene]-2′-one dihydrochloride [Compound 45]
IC50 (FLT3 kinase; Table 2): 5.6 nM
GI50 (MV4;11 cells): 22 nM

Molecule: (2Z,3E)-5′-fluoro-3-((2-(pyrrolidin-1-yl)ethoximino)-[2,3′-biindolinylidene]-2′-one hydrochloride [Compound 36]
IC50 (FLT3 kinase; Table 2): 267 nM
GI50 (MV4;11 cells): 212 nM
GI50 (MDA-MB-231): 805 nM

Molecule: (2Z,3E)-34(2-(piperazin-1-yl)ethoxy)imino)-5′-(trifluoromethoxy)-[2,3′-biindolinylidene]-2′-one dihydrochloride [Compound 44]
IC50 (FLT3 kinase; Table 2): 40.2 nM
GI50 (MV4;11 cells): 20 nM
